Results from the SangsterLogP compilation.

CCCCCCCC(=O)Oc1c(I)cc(C#N)cc1I
logP: 6.8

Fc1c(F)c(F)c(C(F)(F)F)c(F)c1F
logP: 3

CC(=O)Oc1c(I)cc(C#N)cc1I
logP: 3.8

CSc1ccc(O)cc1C
logP: 2.3

N#Cc1cc(I)c(O)c([N+](=O)[O-])c1
logP: 2.7

CSc1c(C)cc(O)cc1C
logP: 2.8

Fc1c(F)c(F)c(S)c(F)c1F
logP: 2

O=C(O)c1cc(I)c(O)c(I)c1
logP: 3.7

N#Cc1cc(I)c(O)c(I)c1
logP: 3.8

Cc1cc(I)c(O)c(I)c1
logP: 4.2

O=C(O)c1cc(Cl)ccc1O
logP: 2.9

NC(=S)c1cc(I)c(O)c(I)c1
logP: 3.2

COc1c(I)cc(C#N)cc1[N+](=O)[O-]
logP: 2.9

N#Cc1cc(I)cc(I)c1O
logP: 4.1

O=[N+]([O-])c1ccc(Cl)c(O)c1
logP: 2.4

COC(=O)c1cc(I)c(O)c(I)c1
logP: 3.9

CS(=O)(=O)c1c(F)c(F)c(F)c(F)c1F
logP: 1.2

CNC(=O)Oc1c(I)cc(C#N)cc1I
logP: 3.3

COc1c(I)cc(C#N)cc1I
logP: 4.1

COc1ccccc1[N+](=O)[O-]
logP: 2

CCCCN(CCCC)SN(C)C(=O)Oc1cccc2c1OC(C)(C)C2
logP: 5

Cc1cc(O)ccc1Cl
logP: 3.1

CC(C)C(=O)Oc1c(I)cc(C#N)cc1I
logP: 4.6
